Experimental data as given in paper PMC3789947, “Mechanism for Recognition of an Unusual Mycobacterial Glycolipid by the Macrophage Receptor Mincle” (The Journal of Biological Chemistry, 2013).

Tests used:
[1] = target: T1, bovine mincle CRD (Bos taurus, UniProt E1BHM0, I174T); assay: competition with […]-Man31-BSA on immobilized biotin-tagged CRD; type: binding; conditions: pH 7.8, 1.5 M NaCl, 2.5 mM CaCl2, 4 °C
T1 construct: gene CLEC4E; C-type carbohydrate recognition domain, residues 78-211
T1 sequence (E1BHM0 78-211 I174T): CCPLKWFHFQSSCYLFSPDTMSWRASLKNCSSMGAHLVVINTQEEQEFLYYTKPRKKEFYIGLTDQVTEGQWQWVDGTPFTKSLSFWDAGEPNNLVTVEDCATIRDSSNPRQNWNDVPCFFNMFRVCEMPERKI

[2] = target: T1, bovine mincle CRD; assay: as above; type: binding
[3] = reported as KI(trehalose)/KI(acyltrehalose) ratio

Structure (SMILES)	KI [1, 3]	also measured
CCCC(=O)OC[C@H]1O[C@H](O[C@H]2O[C@H](CO)[C@@H](O)[C@H](O)[C@H]2O)[C@H](O)[C@@H](O)[C@@H]1O [mono-n-butanoyl derivative of trehalose]	the mono-n-butanoyl derivative showed enhanced affinity compared with trehalose	–
CCCCCCCC(=O)OC[C@H]1O[C@H](O[C@H]2O[C@H](CO)[C@@H](O)[C@H](O)[C@H]2O)[C@H](O)[C@@H](O)[C@@H]1O [mono-octanoyl trehalose]	–	Ki [2]: 58 ± 8 µM
CC(=O)OC[C@H]1O[C@H](O[C@H]2O[C@H](COC(C)=O)[C@@H](O)[C@H](O)[C@H]2O)[C@H](O)[C@@H](O)[C@@H]1O [trehalose acetylated at the two 6-OH groups]	acetylation at the two 6-OH groups is tolerated	–
CO[C@H]1O[C@H](CO)[C@@H](O)[C@H](O)[C@H]1O [α-methyl glucoside]	–	KI [1]: The mean ratio of KI values for α-methyl glucoside and trehalose
